Measurements taken from PubChem BioAssay (NCI).
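These data come from cells grown in 96-well plates and exposed to compound for 48 hours at five concentrations. GI50 marks 50% less growth. At the TGI there is no net growth.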

What was measured:
Assay in all cases: NCI tumour cell line growth inhibition, 48 h
COLO 205 colon = test system: COLO 205 colon
HL-60(TB) leukemia = test system: HL-60(TB) leukemia
HT29 colon = test system: HT29 colon
K-562 leukemia = test system: K-562 leukemia
M14 melanoma = test system: M14 melanoma
MCF7 breast = test system: MCF7 breast
NCI-H522 lung = test system: NCI-H522 lung
SK-OV-3 ovarian = test system: SK-OV-3 ovarian
T-47D breast = test system: T-47D breast
HS 578T breast = test system: HS 578T breast

SMILES	GI50 (COLO 205 colon) [µM]	TGI (COLO 205 colon) [µM]	GI50 (HL-60(TB) leukemia) [µM]	TGI (HL-60(TB) leukemia) [µM]	GI50 (HT29 colon) [µM]	TGI (HT29 colon) [µM]	GI50 (K-562 leukemia) [µM]	TGI (K-562 leukemia) [µM]	GI50 (M14 melanoma) [µM]	TGI (M14 melanoma) [µM]	GI50 (MCF7 breast) [µM]	TGI (MCF7 breast) [µM]	GI50 (NCI-H522 lung) [µM]	TGI (NCI-H522 lung) [µM]	GI50 (SK-OV-3 ovarian) [µM]	TGI (SK-OV-3 ovarian) [µM]	GI50 (T-47D breast) [µM]	TGI (T-47D breast) [µM]	GI50 (HS 578T breast) [µM]	TGI (HS 578T breast) [µM]
Cc1nc2ccccc2nc1N=Nc1ccccc1	0.291	1.91	20.6	56.6	0.193	15.1	25.7	> 100	17.7	44.8	5.75	> 100	20.4	63.1	34.9	> 100	10.1	67.7	–	–
COc1cc2ccnc3c(=C(SC)SC)c(=O)c(c1OC)c23	–	10.5	–	5.04	–	26.2	–	16.3	–	28.3	–	–	–	5.18	–	> 100	–	–	–	–
COc1c(N2CCN(CN3C(=O)C(=O)c4cc(Cl)ccc43)C(C)C2)c(F)cc2c(=O)c(C(=O)O)cn(C3CC3)c12 (stereo unspecified)	80.6	> 100	7.29	> 100	30.9	> 100	14	> 100	69.6	> 100	26.6	> 100	> 100	> 100	–	–	–	–	30.4	> 100
O=C(NCCCl)SCCO	–	> 100	–	> 100	–	> 100	–	> 100	–	> 100	–	–	–	> 100	–	> 100	–	–	–	–
NC(=O)NC1C(C(=O)O)N(Cc2ccccc2)C(=O)N1Cc1ccccc1 (stereo unspecified)	–	> 100	–	> 100	–	> 100	–	> 100	–	> 100	–	–	–	> 100	–	> 100	–	–	–	–
CCC1(CN(C)C)CC/C(=C\c2ccc(OC)c(OC)c2)C1=O (stereo unspecified)	–	> 100	–	> 100	–	> 100	–	> 100	–	> 100	–	–	–	> 100	–	> 100	–	–	–	–
N#CC1=C(O)NC(O)=C(C#N)C1c1ccc(C2C(C#N)=C(O)NC(O)=C2C#N)cc1	–	63.1	–	75.3	–	> 100	–	> 100	–	> 100	–	–	–	43.6	–	> 100	–	–	–	–
CC(=O)NC(C=O)C(O[C@H](C)C(=O)NC(C)C(=O)NC(CCC(N)=O)C(=O)OCc1ccccc1)C(O)C(O)COC(=O)CCNc1c2ccccc2nc2cccc([N+](=O)[O-])c12 (stereo partly specified)	–	2.74	–	31.8	–	7.88	–	9.62	–	4.58	–	–	–	4.49	–	–	–	–	–	–
O=c1[nH]cnc2c(COCCO)c[nH]c12	–	> 100	–	> 100	–	> 100	–	> 100	–	> 100	–	–	–	> 100	–	> 100	–	–	–	–
NC(=O)CC(N=Cc1nc(-c2ccccc2)oc1O)C(=O)O (stereo unspecified)	–	> 100	–	> 100	–	> 100	–	> 100	–	> 100	–	–	–	> 100	–	> 100	–	–	–	–
COc1cccc(SSc2cccc(OC)c2C(=O)O)c1C(=O)O	–	> 100	–	> 100	–	> 100	–	> 100	–	> 100	–	–	–	> 100	–	> 100	–	–	–	–
CC(=O)OC1=CC2(OC(C)=O)CC(C)(C)C1C1C(=O)C=CC(=O)C12 (stereo unspecified)	–	> 65.7	–	> 100	–	47.9	–	> 100	–	> 100	–	> 100	–	> 52.4	–	> 100	–	> 100	–	–
N#Cc1cccc(C=NC23CC4CC(CC(C4)C2)C3)c1	–	> 100	–	42.2	–	> 100	–	> 100	–	> 100	–	–	–	> 100	–	> 100	–	–	–	–
COc1cc(C)c2sc3ccccc3c(=O)c2c1NCCN(C)C	1.86	3.51	4.68	16.3	2.62	9.15	2.3	4.61	2.16	4.33	2.4	10.2	4.91	17.9	10.9	23.6	2.58	9.4	–	–
Cn1cc(C(=O)c2ccccc2)cc(C(=O)c2ccccc2)c1=O	–	> 100	–	> 100	–	> 100	–	> 100	–	> 100	–	–	–	> 100	–	> 100	–	–	–	–
Cc1ccc(NC(=O)CCc2n[nH]c(=S)o2)cc1	–	> 100	–	> 100	–	> 100	–	> 100	–	> 100	–	–	–	> 100	–	–	–	–	–	–
COCCOCCOCCOc1cccc2c1C(=O)c1cccc(OCCOCCOCCOC)c1C2=O	–	> 100	–	> 100	–	> 100	–	> 100	–	> 100	–	–	–	–	–	> 100	–	–	–	–

SMILES	GI50 (COLO 205 colon) [µM]	TGI (COLO 205 colon) [µM]	GI50 (HL-60(TB) leukemia) [µM]	TGI (HL-60(TB) leukemia) [µM]	GI50 (HT29 colon) [µM]	TGI (HT29 colon) [µM]	GI50 (K-562 leukemia) [µM]	TGI (K-562 leukemia) [µM]	GI50 (M14 melanoma) [µM]	TGI (M14 melanoma) [µM]	GI50 (MCF7 breast) [µM]	TGI (MCF7 breast) [µM]	GI50 (NCI-H522 lung) [µM]	TGI (NCI-H522 lung) [µM]	GI50 (SK-OV-3 ovarian) [µM]	TGI (SK-OV-3 ovarian) [µM]	GI50 (T-47D breast) [µM]	TGI (T-47D breast) [µM]	GI50 (HS 578T breast) [µM]	TGI (HS 578T breast) [µM]
CC(=O)c1ccc(NC(=O)COC(=O)c2cccc3c(=O)c4ccccc4[nH]c23)cc1	–	> 100	–	> 100	–	> 100	–	> 100	–	> 100	–	–	–	> 100	–	> 100	–	–	–	–
COc1ccc(NC(=O)CC(=O)n2nc(C)c(N=Nc3ccccc3C(=O)O)c2C)cc1	–	> 100	–	> 100	–	> 100	–	> 100	–	> 100	–	–	–	> 100	–	94.2	–	–	–	–
Cc1ccc(S(=O)(=O)N/N=C/C(C)C)cc1	–	> 100	–	> 100	–	> 100	–	> 100	–	> 100	–	–	–	–	–	> 100	–	–	–	–
CN(CCCCCl)P(=O)(OCc1ccc([N+](=O)[O-])o1)OCC1OC(n2cnc([N+](=O)[O-])c2N)C(O)C1O (stereo unspecified)	> 100	> 100	> 100	> 100	> 100	> 100	> 100	> 100	–	–	54.8	> 100	> 100	> 100	> 100	> 100	–	–	> 100	> 100
C=C(C(=C)P(=S)(C(C)C)C(C)C)P(=S)(C(C)C)C(C)C	–	> 100	–	> 100	–	> 100	–	> 100	–	> 100	–	–	–	> 100	–	> 100	–	–	–	–
CCCCCCCCCCCc1c(O)c(=O)c2c(oc3c(=O)c(CCCCCCCCCCC)c(O)c(=O)c3n2-c2ccc(N(C)C)cc2)c1=O	–	38.1	–	90.4	–	46.8	–	> 100	–	32.8	–	–	–	> 100	–	37.9	–	–	–	–
Cc1cccc2c3c(sc12)C(c1ccc(F)cc1)C(C#N)=C(N)O3 (stereo unspecified)	0.28	1.29	0.0389	0.731	0.313	8.4	0.0357	> 100	0.0976	11.7	0.0332	11.1	0.0353	1.49	1.35	27.8	–	–	0.0482	1.95
OCCN(CCO)c1cccc(N(CCO)CCO)n1	–	> 100	–	> 100	–	–	–	> 100	–	> 100	–	–	–	> 100	–	> 100	–	–	–	–
CC([O-])=C1C(=O)c2ccccc2C1=O.CC([O-])=C1C(=O)c2ccccc2C1=O.CC[O-].CC[O-].[Ti+4]	91.7	> 100	> 100	> 100	> 100	> 100	> 100	> 100	> 100	> 100	–	–	> 100	> 100	> 100	> 100	–	–	–	–
COC(=O)Cc1cc(=O)[nH]c2c1C(=O)CCC2	–	–	–	> 100	–	> 100	–	> 100	–	> 100	–	–	–	> 100	–	> 100	–	–	–	–
O=Cc1ccc(-c2ccc(-c3nc4ccccc4s3)cc2)s1	> 100	> 100	34.8	> 100	77.3	> 100	37.1	> 100	54.6	> 100	48.1	> 100	69.1	> 100	> 100	> 100	> 100	> 100	–	–
O=c1c2cc3c(cc2c2cccc4c2n1CCC4)OCO3	–	> 100	–	> 100	–	> 100	–	> 100	–	> 100	–	–	–	42	–	> 100	–	–	–	–
COc1cccc(N2C(=O)C3C4C=C5c6ccccc6N(c6ccccc6)C5(C3C2=O)[C@H]2C(=O)N(c3cccc(OC)c3)C(=O)[C@@H]42)c1 (stereo partly specified)	–	> 100	–	> 100	–	> 100	–	> 100	–	> 100	–	–	–	–	–	> 100	–	–	–	–
COc1ccc(-c2csc(NC(=O)CN3CCN(c4cc5c(cc4F)c(=O)c(C(=O)O)cn5C4CC4)CC3)n2)cc1	–	–	–	–	3.49	> 100	–	–	4.1	> 100	2.84	> 100	3.48	> 100	2.86	8.32	–	–	9.82	> 100
COc1ccc(C(=O)C#Cc2c[nH]c(=O)[nH]c2=O)cc1	–	24.8	–	23.3	–	28	–	37.3	–	18	–	–	–	10.6	–	> 100	–	–	–	–
Cc1cc(Cl)ccc1C(=O)c1ccc2ccccc2c1C(=O)O	–	> 100	–	> 100	–	> 100	–	> 100	–	> 100	–	> 100	–	> 100	–	–	–	> 100	–	–
